Assay results: ChEMBL document CHEMBL1141370, “Biologically active triterpenoid saponins from Ardisia japonica” (J Nat Prod, 2007)

Experiments:
Format in all cases: cell-based
HL-60 = test: Cytotoxicity against human HL60 cell line by MTT assay
[1] = Cytotoxicity against human KATO3 cell line by MTT assay
A549 = test: Cytotoxicity against human A549 cell line by MTT assay

Compound | IC50 (HL-60) | IC50 [1] | IC50 (A549)
C[C@@H]1O[C@@H](O[C@H]2[C@H](O[C@H]3CO[C@@H](O[C@H]4CC[C@]5(C)[C@H]6CC[C@]78OC[C@@]9(CCC(C)(C)C[C@H]97)[C@H](O)C[C@@]8(C)[C@]6(C)CC[C@H]5C4(C)C)[C@H](O[C@@H]4O[C@H](CO)[C@@H](O)[C@H](O)[C@H]4O)[C@H]3O)O[C@H](CO)[C@@H](O)[C@@H]2O)[C@H](O)[C@H](O)[C@H]1O | 1.9 µM | 0.4 µM | 3.7 µM
C[C@@H]1O[C@@H](O[C@H]2[C@H](O[C@H]3CO[C@@H](O[C@H]4CC[C@]5(C)[C@H]6CC[C@]78OC[C@@]9(CC[C@](C)(C=O)C[C@H]97)[C@H](O)C[C@@]8(C)[C@]6(C)CC[C@H]5C4(C)C)[C@H](O[C@@H]4O[C@H](CO)[C@@H](O)[C@H](O)[C@H]4O)[C@H]3O)O[C@H](CO)[C@@H](O)[C@@H]2O)[C@H](O)[C@H](O)[C@H]1O [ARDISIACRISPIN B] | 3.2 µM | 1.2 µM | 3.6 µM
C[C@@H]1O[C@@H](O[C@H]2[C@H](O[C@H]3CO[C@@H](O[C@H]4CC[C@]5(C)[C@H]6CC=C7[C@@H]8C[C@@](C)(CO)CC[C@]8(CO)[C@H](O)C[C@@]7(C)[C@]6(C)CC[C@H]5C4(C)C)[C@H](O[C@@H]4O[C@H](CO)[C@@H](O)[C@H](O)[C@H]4O)[C@H]3O)O[C@H](CO)[C@@H](O)[C@@H]2O)[C@H](O)[C@H](O)[C@H]1O [ARDISIAMAMILLOSEDE C] | > 100 µM | > 100 µM | > 100 µM
C[C@@H]1O[C@@H](O[C@H]2[C@H](O[C@H]3CO[C@@H](O[C@H]4CC[C@]5(C)[C@H]6CC[C@]78OC[C@@]9(CC[C@](C)(C(=O)O)C[C@H]97)[C@H](O)C[C@@]8(C)[C@]6(C)CC[C@H]5C4(C)C)[C@H](O[C@@H]4O[C@H](CO)[C@@H](O)[C@H](O)[C@H]4O)[C@H]3O)O[C@H](CO)[C@@H](O)[C@@H]2O)[C@H](O)[C@H](O)[C@H]1O [ARDISIAMAMILLOSIDE F] | > 100 µM | > 100 µM | > 100 µM
C[C@@H]1O[C@@H](O[C@H]2[C@H](O[C@H]3CO[C@@H](O[C@H]4CC[C@]5(C)[C@H]6CC[C@]78OC[C@@]9(CC[C@](C)(C=O)C[C@H]97)C(=O)C[C@@]8(C)[C@]6(C)CC[C@H]5C4(C)C)[C@H](O)[C@H]3O)O[C@H](CO)[C@@H](O)[C@@H]2O)[C@H](O)[C@H](O)[C@H]1O [ARDISIAMAMILLOSIDE H] | 30.8 µM | 21.5 µM | 37.2 µM
CC1(C)CC[C@]23CO[C@@]4(CC[C@@H]5[C@@]6(C)CC[C@H](O[C@@H]7OC[C@H](O[C@@H]8O[C@H](CO)[C@@H](O)[C@H](O[C@@H]9O[C@H](CO)[C@@H](O)[C@H](O[C@@H]%10O[C@H](CO)[C@@H](O)[C@H](O)[C@H]%10O)[C@H]9O)[C@H]8O[C@@H]8OC[C@@H](O)[C@H](O)[C@H]8O)[C@H](O)[C@H]7O[C@@H]7O[C@H](CO)[C@@H](O)[C@H](O)[C@H]7O)C(C)(C)[C@@H]6CC[C@@]5(C)[C@]4(C)C[C@H]2O)[C@@H]3C1 [ARDISIANOSIDE B] | 2.4 µM | 0.3 µM | 3.1 µM
C[C@@H]1O[C@@H](O[C@H]2[C@H](O[C@H]3CO[C@@H](O[C@H]4CC[C@]5(C)[C@H]6CC[C@]78OC[C@@]9(CCC(C)(C)C[C@H]97)[C@H](O)C[C@@]8(C)[C@]6(C)CC[C@H]5C4(C)C)[C@H](O)[C@H]3O)O[C@H](CO)[C@@H](O)[C@@H]2O)[C@H](O)[C@H](O)[C@H]1O [ARDISIANOSIDE C] | 2.7 µM | 1.3 µM | 3.2 µM
CC1(C)CC[C@]23CO[C@@]4(CC[C@@H]5[C@@]6(C)CC[C@H](O[C@@H]7OC[C@H](O[C@@H]8O[C@H](CO)[C@@H](O)[C@H](O)[C@H]8O[C@@H]8OC[C@@H](O)[C@H](O)[C@H]8O)[C@H](O)[C@H]7O)C(C)(C)[C@@H]6CC[C@@]5(C)[C@]4(C)C[C@H]2O)[C@@H]3C1 [ARDISIANOSIDE D] | 3.5 µM | 1.5 µM | 24.2 µM
CC1(C)[C@@H](O[C@@H]2OC[C@H](O[C@@H]3O[C@H](CO)[C@@H](O)[C@H](O)[C@H]3O)[C@H](O)[C@H]2O[C@@H]2O[C@H](CO)[C@@H](O)[C@H](O)[C@H]2O)CC[C@]2(C)[C@H]3CC[C@]45OC[C@@]6(CC[C@](C)(CO)C[C@H]64)[C@H](O)C[C@@]5(C)[C@]3(C)CC[C@@H]12 [ARDISIANOSIDE E] | 3.4 µM | 0.4 µM | 3.1 µM
CC1(C)[C@@H](O[C@@H]2OC[C@H](O[C@@H]3O[C@H](CO)[C@@H](O)[C@H](O[C@@H]4O[C@H](CO)[C@@H](O)[C@H](O)[C@H]4O)[C@H]3O[C@@H]3OC[C@@H](O)[C@H](O)[C@H]3O)[C@H](O)[C@H]2O[C@@H]2O[C@H](CO)[C@@H](O)[C@H](O)[C@H]2O)CC[C@]2(C)[C@H]3CC[C@]45OC[C@@]6(CC[C@](C)(CO)C[C@H]64)[C@H](O)C[C@@]5(C)[C@]3(C)CC[C@@H]12 [ARDISIANOSIDE F] | > 100 µM | 38.3 µM | 36.2 µM
C[C@@H]1O[C@@H](O[C@H]2[C@H](O[C@H]3CO[C@@H](O[C@H]4CC[C@]5(C)[C@H]6CC[C@]78OC[C@@]9(CC[C@](C)(O)C[C@H]97)[C@H](O)C[C@@]8(C)[C@]6(C)CC[C@H]5C4(C)C)[C@H](O[C@@H]4O[C@H](CO)[C@@H](O)[C@H](O)[C@H]4O)[C@H]3O)O[C@H](CO)[C@@H](O)[C@@H]2O)[C@H](O)[C@H](O)[C@H]1O [ARDISIANOSIDE G] | > 100 µM | > 100 µM | > 100 µM
CC1(C)CC[C@]23C(=O)O[C@@]4(CC[C@@H]5[C@@]6(C)CC[C@H](O[C@@H]7OC[C@H](O[C@@H]8O[C@H](CO)[C@@H](O)[C@H](O[C@@H]9O[C@H](CO)[C@@H](O[C@@H]%10O[C@H](CO)[C@@H](O)[C@H](O)[C@H]%10O)[C@H](O[C@@H]%10O[C@H](CO)[C@@H](O)[C@H](O)[C@H]%10O)[C@H]9O)[C@H]8O[C@@H]8OC[C@@H](O)[C@H](O)[C@H]8O)[C@H](O)[C@H]7O[C@@H]7O[C@H](CO)[C@@H](O)[C@H](O)[C@H]7O)C(C)(C)[C@@H]6CC[C@@]5(C)[C@]4(C)C[C@H]2O)[C@@H]3C1 [ARDISIANOSIDE H] | 28.4 µM | 8.3 µM | 33.4 µM
C[C@@H]1O[C@@H](O[C@H]2[C@H](O[C@H]3CO[C@@H](O[C@H]4CC[C@]5(C)[C@H]6CC[C@]78OC(=O)[C@@]9(CC[C@](C)(CO)C[C@H]97)[C@H](O)C[C@@]8(C)[C@]6(C)CC[C@H]5C4(C)C)[C@H](O[C@@H]4O[C@H](CO)[C@@H](O)[C@H](O)[C@H]4O)[C@H]3O)O[C@H](CO)[C@@H](O)[C@@H]2O)[C@H](O)[C@H](O)[C@H]1O [ARDISIANOSIDE I] | > 100 µM | > 100 µM | > 100 µM
C[C@@H]1O[C@@H](O[C@H]2[C@H](O[C@H]3CO[C@@H](O[C@H]4CC[C@]5(C)[C@H]6CC[C@]78OC(=O)[C@@]9(CC[C@](C)(C=O)C[C@H]97)[C@H](O)C[C@@]8(C)[C@]6(C)CC[C@H]5C4(C)C)[C@H](O[C@@H]4O[C@H](CO)[C@@H](O)[C@H](O)[C@H]4O)[C@H]3O)O[C@H](CO)[C@@H](O)[C@@H]2O)[C@H](O)[C@H](O)[C@H]1O [ARDISIANOSIDE J] | 45.6 µM | 33.5 µM | 32.9 µM
C[C@@H]1O[C@@H](O[C@H]2[C@H](O[C@H]3CO[C@@H](O[C@H]4CC[C@]5(C)[C@H]6CC=C7[C@@H]8C[C@@](C)(CO)CC[C@]8(CO)[C@@H]8O[C@@H]8[C@@]7(C)[C@]6(C)CC[C@H]5C4(C)C)[C@H](O[C@@H]4O[C@H](CO)[C@@H](O)[C@H](O)[C@H]4O)[C@H]3O)O[C@H](CO)[C@@H](O)[C@@H]2O)[C@H](O)[C@H](O)[C@H]1O [ARDISIANOSIDE K] | > 100 µM | > 100 µM | > 100 µM
CC1(C)CC[C@]23CO[C@@]4(CC[C@@H]5[C@@]6(C)CC[C@H](O[C@@H]7OC[C@H](O[C@@H]8O[C@H](CO)[C@@H](O)[C@H](O[C@@H]9O[C@H](CO)[C@@H](O[C@@H]%10O[C@H](CO)[C@@H](O)[C@H](O)[C@H]%10O)[C@H](O[C@@H]%10O[C@H](CO)[C@@H](O)[C@H](O)[C@H]%10O)[C@H]9O)[C@H]8O[C@@H]8OC[C@@H](O)[C@H](O)[C@H]8O)[C@H](O)[C@H]7O[C@@H]7O[C@H](CO)[C@@H](O)[C@H](O)[C@H]7O)C(C)(C)[C@@H]6CC[C@@]5(C)[C@]4(C)C[C@H]2O)[C@@H]3C1 [ARDISIANOSIDES A] | 2.7 µM | 0.4 µM | 6 µM
C[C@@H]1O[C@@H](O[C@H]2[C@H](O[C@H]3CO[C@@H](O[C@H]4CC[C@]5(C)[C@H]6CC[C@]78OC[C@@]9(CC[C@](C)(CO)C[C@H]97)[C@H](O)C[C@@]8(C)[C@]6(C)CC[C@H]5C4(C)C)[C@H](O[C@@H]4O[C@H](CO)[C@@H](O)[C@H](O)[C@H]4O)[C@H]3O)O[C@H](CO)[C@@H](O)[C@@H]2O)[C@H](O)[C@H](O)[C@H]1O [ARDISICRENOSIDE A] | > 100 µM | 14.5 µM | > 100 µM
CC1(C)[C@@H](O[C@@H]2OC[C@H](O[C@@H]3O[C@H](CO)[C@@H](O)[C@H](O[C@@H]4O[C@H](CO)[C@@H](O)[C@H](O)[C@H]4O)[C@H]3O[C@@H]3OC[C@@H](O)[C@H](O)[C@H]3O)[C@H](O)[C@H]2O[C@@H]2O[C@H](CO)[C@@H](O)[C@H](O)[C@H]2O)CC[C@]2(C)[C@H]3CC[C@]45OC[C@@]6(CC[C@](C)(C=O)C[C@H]64)[C@H](O)C[C@@]5(C)[C@]3(C)CC[C@@H]12 [CYCLAMIN] | 3 µM | 0.3 µM | 3.3 µM
C[C@@H]1O[C@@H](O[C@H]2[C@H](O[C@H]3CO[C@@H](O[C@H]4CC[C@]5(C)[C@H]6CC[C@]78OC[C@@]9(CC[C@](C)(C=O)C[C@H]97)[C@H](O)C[C@@]8(C)[C@]6(C)CC[C@H]5C4(C)C)[C@H](O)[C@H]3O)O[C@H](CO)[C@@H](O)[C@@H]2O)[C@H](O)[C@H](O)[C@H]1O [CYCLAMIRETIN A] | 18.1 µM | 1.7 µM | 29.2 µM
COc1cc([C@@H]2c3cc4c(cc3[C@@H](O[C@@H]3O[C@@H]5CO[C@@H](C)O[C@H]5[C@H](O)[C@H]3O)[C@H]3COC(=O)[C@H]23)OCO4)cc(OC)c1O [ETOPOSIDE] | 0.3 µM | 0.1 µM | 20.9 µM
